Data: patent publication US10787450B2 (BRISTOL-MYERS SQUIBB COMPANY, priority 2016, dated 2020)
Structures can show the parent of a compound that is named as a salt.

Target: ROCK2 (Homo sapiens (Human), UniProt O75116)
Assay: ROCK2 kinase inhibition assay (FITC peptide substrate, LABCHIP 3000 Reader)
Assay type: biochemical
Conditions: 5 μM ATP, 1.5 μM peptide substrate
Procedure: The effectiveness of compounds of the present invention as ROCK inhibitors can be determined in a 30 μL assay containing 20 mM HEPES, pH 7.5, 20 mM MgCl2, 0.015% Brij-35, 4 mM DTT, 5 μM ATP and 1.5 μM peptide substrate (FITC-AHA-AKRRRLSSLRA-OH) (SEQ ID NO. 1). Compounds were dissolved in DMSO so that the final concentration of DMSO was <2%, and the reaction was initiated with Rho kinase variants. After incubation, the reaction was terminated by the addition of EDTA and the phosphorylated and non-phosphorylated peptides separated using a LABCHIP® 3000 Reader (Caliper Life Sciences). […] Compounds were tested in dose-response format, and the inhibition of kinase activity was calculated at each concentration of compound. The inhibition data were fit using a curve-fitting program to determine the IC50; i.e., the concentration of compound required to inhibit 50% of kinase activity.
Representative examples were tested in the ROCK2 assay described above and found having ROCK2 inhibitory activity.

Chain of ROCK2 (O75116 whole entry, species assumed): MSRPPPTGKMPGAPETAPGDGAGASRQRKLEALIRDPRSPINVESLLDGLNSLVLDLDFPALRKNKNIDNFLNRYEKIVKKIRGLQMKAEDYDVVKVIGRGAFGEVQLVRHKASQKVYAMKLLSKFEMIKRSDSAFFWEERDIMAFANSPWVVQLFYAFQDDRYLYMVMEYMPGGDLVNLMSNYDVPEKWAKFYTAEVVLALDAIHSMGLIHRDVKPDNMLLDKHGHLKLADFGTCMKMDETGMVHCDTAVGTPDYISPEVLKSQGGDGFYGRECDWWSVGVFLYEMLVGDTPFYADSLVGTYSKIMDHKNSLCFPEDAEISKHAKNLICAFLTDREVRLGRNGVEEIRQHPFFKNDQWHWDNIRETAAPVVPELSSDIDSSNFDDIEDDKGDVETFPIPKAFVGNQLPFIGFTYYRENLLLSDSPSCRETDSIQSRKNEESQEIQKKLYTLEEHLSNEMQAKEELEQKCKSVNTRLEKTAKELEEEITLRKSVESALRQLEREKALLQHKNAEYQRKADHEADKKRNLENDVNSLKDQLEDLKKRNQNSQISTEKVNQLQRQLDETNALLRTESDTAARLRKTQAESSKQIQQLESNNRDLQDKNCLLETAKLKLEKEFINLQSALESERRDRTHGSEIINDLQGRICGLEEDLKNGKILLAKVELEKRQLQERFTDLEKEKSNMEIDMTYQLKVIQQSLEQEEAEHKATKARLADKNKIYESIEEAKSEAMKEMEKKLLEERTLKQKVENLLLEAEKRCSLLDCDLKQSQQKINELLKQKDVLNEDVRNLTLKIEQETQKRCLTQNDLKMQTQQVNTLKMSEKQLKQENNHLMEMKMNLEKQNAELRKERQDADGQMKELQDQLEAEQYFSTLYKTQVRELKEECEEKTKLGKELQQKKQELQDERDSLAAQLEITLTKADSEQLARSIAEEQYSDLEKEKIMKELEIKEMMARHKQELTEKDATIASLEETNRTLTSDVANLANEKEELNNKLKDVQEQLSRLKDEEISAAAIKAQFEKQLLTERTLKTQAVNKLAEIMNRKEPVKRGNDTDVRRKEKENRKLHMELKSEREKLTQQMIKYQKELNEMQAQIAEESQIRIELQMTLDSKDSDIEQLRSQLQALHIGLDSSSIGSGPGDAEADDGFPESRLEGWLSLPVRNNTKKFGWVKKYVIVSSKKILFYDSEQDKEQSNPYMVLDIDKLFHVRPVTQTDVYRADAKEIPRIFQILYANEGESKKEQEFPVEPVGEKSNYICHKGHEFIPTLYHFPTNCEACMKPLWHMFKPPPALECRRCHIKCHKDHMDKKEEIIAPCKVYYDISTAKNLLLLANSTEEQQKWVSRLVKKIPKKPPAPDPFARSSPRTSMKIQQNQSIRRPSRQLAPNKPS

IC50	SMILES
< 3 nM	CCc1cc(N2CC3(CC3)N(Cc3cccc(OC)c3)C2=O)ccc1-c1cn[nH]c1 [Example 5, 6-(3-ethyl-4-(1H-pyrazol-4-yl)phenyl)-4-(3-methoxybenzyl)-4,6-diazaspiro[2.4]heptan-5-one]
< 3 nM	COc1cccc(CN2C(=O)N(c3ccc(-c4cn[nH]c4)cc3)CC23CCN(C2COC2)CC3)c1 [Example 235, 3-(4-(1H-pyrazol-4-yl)phenyl)-1-(3-methoxybenzyl)-8-(oxetan-3-yl)-1,3,8-triazaspiro[4.5]decan-2-one]
< 3 nM	COc1nc(N2CC3(CCN(CC(C)(C)O)CC3)N(Cc3cccc(F)c3C)C2=O)ccc1-c1cn[nH]c1 [Example 167, 1-(3-fluoro-2-methylbenzyl)-8-(2-hydroxy-2-methylpropyl)-3-(6-methoxy-5-(1H-pyrazol-4-yl)pyridin-2-yl)-1,3,8-triazaspiro[4.5]decan-2-one]
3 to 30 nM	COc1cccc(CN2C(=O)N(c3ccc(-c4cn[nH]c4)cn3)CC23CCN(C(=O)OC(C)(C)C)CC3)c1 [Example 51, tert-butyl 3-(5-(1H-pyrazol-4-yl)pyridin-2-yl)-1-(3-methoxybenzyl)-2-oxo-1,3,8-triazaspiro[4.5]decane-8-carboxylate]
30 to 250 nM	CC(=O)N1CCC2(CC1)CN(c1ccc(-c3cn[nH]c3)cc1)C(=O)N2Cc1cccc(F)c1F [Example 77, 3-(4-(1H-pyrazol-4-yl)phenyl)-8-acetyl-1-(2,3-difluorobenzyl)-1,3,8-triazaspiro[4.5]decan-2-one]
< 3 nM	COc1cccc(CN2C(=O)N(c3ccc(-c4cn[nH]c4)cc3)CC23CCN(CC(C)(C)O)CC3)c1 [Example 138, 3-(4-(1H-pyrazol-4-yl)phenyl)-8-(2-hydroxy-2-methylpropyl)-1-(3-methoxybenzyl)-1,3,8-triazaspiro[4.5]decan-2-one]
< 3 nM	COc1cccc(CN2C(=O)N(c3ccc(-c4cn[nH]c4)cc3)CC23CCN(C(=O)[C@H](C)O)CC3)c1 [Example 177, (S)-3-(4-(1H-pyrazol-4-yl)phenyl)-8-(2-hydroxypropanoyl)-1-(3-methoxybenzyl)-1,3,8-triazaspiro[4.5]decan-2-one]
< 3 nM	COc1cccc(CN2C(=O)N(c3ccc(-c4cn[nH]c4)c(OC)n3)CC23CCN(C(=O)C(C)O)CC3)c1 (stereo not shown) [Example 221, 8-(2-hydroxypropanoyl)-3-(6-methoxy-5-(1H-pyrazol-4-yl)pyridin-2-yl)-1-(3-methoxybenzyl)-1,3,8-triazaspiro[4.5]decan-2-one]
< 3 nM	COc1cccc(CN2C(=O)N(c3ccc(-c4cn[nH]c4)cc3)CC23CCN(CCO)CC3)c1 [Example 141, 3-(4-(1H-pyrazol-4-yl)phenyl)-8-(2-hydroxyethyl)-1-(3-methoxybenzyl)-1,3,8-triazaspiro[4.5]decan-2-one]
< 3 nM	COc1cccc(CN2C(=O)N(c3ccc(-c4cn[nH]c4)cc3)CC23CCN(CC(=O)N(C)C)CC3)c1 [Example 170, 2-(3-(4-(1H-pyrazol-4-yl)phenyl)-1-(3-methoxybenzyl)-2-oxo-1,3,8-triazaspiro[4.5]decan-8-yl)-N,N-dimethylacetamide]
< 3 nM	COc1cccc(CN2C(=O)N(c3ccc(-c4cn[nH]c4)cn3)CC23CCN(C(C)=O)CC3)c1 [Example 84, 3-(5-(1H-pyrazol-4-yl)pyridin-2-yl)-8-acetyl-1-(3-methoxybenzyl)-1,3,8-triazaspiro[4.5]decan-2-one]
< 3 nM	CCc1nc(N2CC3(CCN(C(=O)C4CCCO4)CC3)N(Cc3cccc(OC)c3)C2=O)ccc1-c1cn[nH]c1 (stereo not shown) [Example 207, 3-(6-ethyl-5-(1H-pyrazol-4-yl)pyridin-2-yl)-1-(3-methoxybenzyl)-8-(tetrahydrofuran-2-carbonyl)-1,3,8-triazaspiro[4.5]decan-2-one]
< 3 nM	COc1cccc(CN2C(=O)N(c3ccc(-c4cn[nH]c4)cc3)CC23CCN(CCC(F)(F)F)CC3)c1 [Example 121, 3-(4-(1H-pyrazol-4-yl)phenyl)-1-(3-methoxybenzyl)-8-(3,3,3-trifluoropropyl)-1,3,8-triazaspiro[4.5]decan-2-one]
< 3 nM	COc1cccc(CN2C(=O)N(c3ccc(-c4cn[nH]c4)cc3)CC23CCN(CC2CCC2)CC3)c1 [Example 232, 3-(4-(1H-pyrazol-4-yl)phenyl)-8-(cyclobutyl-methyl)-1-(3-methoxy-benzyl)-1,3,8-triazaspiro [4.5]decan-2-one]
3 to 30 nM	COc1cccc(CN2C(=O)N(c3ccc(-c4cn[nH]c4)cn3)CC23CCN(C(=O)C(F)F)CC3)c1 [Example 194, 3-(5-(1H-pyrazol-4-yl)pyridin-2-yl)-8-(2,2-difluoroacetyl)-1-(3-methoxybenzyl)-1,3,8-triazaspiro[4.5]decan-2-one]
3 to 30 nM	COc1cccc(CN2C(=O)N(c3ccc(-c4cn[nH]c4)cn3)CC23CCN(CCC(F)(F)F)CC3)c1 [Example 133, 3-(5-(1H-pyrazol-4-yl)pyridin-2-yl)-1-(3-methoxybenzyl)-8-(3,3,3-trifluoropropyl)-1,3,8-triazaspiro[4.5]decan-2-one]
< 3 nM	CCc1nc(N2CC3(CCNCC3)N(Cc3cccc(OC)c3)C2=O)ccc1-c1cn[nH]c1 [Example 75, 3-(6-ethyl-5-(1H-pyrazol-4-yl)pyridin-2-yl)-1-(3-methoxybenzyl)-1,3,8-triazaspiro[4.5]decan-2-one, TFA]
3 to 30 nM	COc1cccc(CN2C(=O)N(c3ccc(-c4cn[nH]c4)c(C)n3)CC23CCNCC3)c1 [Example 74, 1-(3-methoxybenzyl)-3-(6-methyl-5-(1H-pyrazol-4-yl)pyridin-2-yl)-1,3,8-triazaspiro[4.5]decan-2-one]
< 3 nM	COc1cccc(CN2C(=O)N(c3ccc(-c4cn[nH]c4)cc3)CC23CCN(CCC(C)C)CC3)c1 [Example 117, 3-(4-(1H-pyrazol-4-yl)phenyl)-8-isopentyl-1-(3-methoxybenzyl)-1,3,8-triazaspiro[4.5]decan-2-one]
< 3 nM	CCc1nc(N2CC3(CCN(C(=O)C(C)(C)O)CC3)N(Cc3cc(F)cc(OC)c3)C2=O)ccc1-c1cn[nH]c1 [Example 187, 3-(6-ethyl-5-(1H-pyrazol-4-yl)pyridin-2-yl)-1-(3-fluoro-5-methoxybenzyl)-8-(2-hydroxy-2-methylpropanoyl)-1,3,8-triazaspiro[4.5]decan-2-one]
250 to 3000 nM	COc1cccc(NC2C(=O)N(c3ccc(-c4cn[nH]c4)cc3)CC23CCN(C(C)=O)CC3)c1 (stereo not shown) [Example 249, -(4-(1H-pyrazol-4-yl)phenyl)-8-acetyl-4-((3-methoxy-phenyl)amino)-2,8-diazaspiro [4.5]decan-3-one]
< 3 nM	COC(=O)N1CCC2(CC1)CN(c1ccc(-c3cn[nH]c3)cc1)C(=O)N2Cc1cccc(F)c1C [Example 108, methyl 3-(4-(1H-pyrazol-4-yl)phenyl)-1-(3-fluoro-2-methylbenzyl)-2-oxo-1,3,8-triazaspiro[4.5]decane-8-carboxylate]
3 to 30 nM	O=C1N(c2ccc(-c3cn[nH]c3)cc2)CC2(CCNCC2)N1Cc1cccc(OC(F)F)c1 [Example 61, 3-(4-(1H-pyrazol-4-yl)phenyl)-1-(3-(difluoromethoxy)benzyl)-1,3,8-triazaspiro[4.5]decan-2-one]
< 3 nM	CCc1nc(N2CC3(CCN(CCO)CC3)N(Cc3cccc(OC)c3)C2=O)ccc1-c1cn[nH]c1 [Example 150, 3-(6-ethyl-5-(1H-pyrazol-4-yl)pyridin-2-yl)-8-(2-hydroxyethyl)-1-(3-methoxybenzyl)-1,3,8-triazaspiro[4.5]decan-2-one]
3 to 30 nM	O=C1N(c2ccc(-c3cn[nH]c3)cc2)CC2(CCOCC2)N1Cc1ccc(F)c(F)c1 [Example 17, 3-(4-(1H-pyrazol-4-yl)phenyl)-1-(3,4-difluorobenzyl)-8-oxa-1,3-diazaspiro[4.5]decan-2-one]
3 to 30 nM	O=C(c1cccc(CN2C(=O)N(c3ccc(-c4cn[nH]c4)cc3)CC23CCOCC3)c1)N1CCC(CO)CC1 [Example 47, 3-(4-(1H-pyrazol-4-yl)phenyl)-1-(3-(4-(hydroxymethyl)piperidine-1-carbonyl)benzyl)-8-oxa-1,3-diazaspiro[4.5]decan-2-one]
< 3 nM	COc1cc(F)cc(CN2C(=O)N(c3ccc(-c4cn[nH]c4)cc3)CC23CCN(CC(C)O)CC3)c1 (stereo not shown) [Example 157, 3-(4-(1H-pyrazol-4-yl)phenyl)-1-(3-fluoro-5-methoxybenzyl)-8-(2-hydroxypropyl)-1,3,8-triazaspiro[4.5]decan-2-one]
250 to 3000 nM	COc1cccc(NC2C(=O)N(c3ccc(-c4cn[nH]c4)cc3)CC23CN(C(=O)C2COC2)C3)c1 (stereo not shown) [Example 245, 6-(4-(1H-pyrazol-4-yl)phenyl)-8-((3-methoxy-phenyl)amino)-2-(oxetane-3-carbonyl)-2,6-diazaspiro [3.4]octan-7-one]
250 to 3000 nM	COC(=O)N1CC2(C1)CN(c1ccc(-c3cn[nH]c3)cc1)C(=O)C2Nc1cccc(OC)c1 (stereo not shown) [Example 248, methyl 6-(4-(1H-pyrazol-4-yl)phenyl)-8-((3-methoxy-phenyl)amino)-7-oxo-2,6-diazaspiro [3.4]octane-2-carboxylate]
3 to 30 nM	CCc1nc(N2CC3(CCN(CCC(F)(F)F)CC3)N(Cc3cccc(F)c3C)C2=O)ccc1-c1cn[nH]c1 [Example 126, 3-(6-ethyl-5-(1H-pyrazol-4-yl)pyridin-2-yl)-1-(3-fluoro-2-methylbenzyl)-8-(3,3,3-trifluoropropyl)-1,3,8-triazaspiro[4.5]decan-2-one]

SMILES	IC50
Cc1c(F)cccc1CN1C(=O)N(c2ccc(-c3cn[nH]c3)cc2)CC12CCN(CC(F)F)CC2 [Example 131, 3-(4-(1H-pyrazol-4-yl)phenyl)-8-(2,2-difluoroethyl)-1-(3-fluoro-2-methylbenzyl)-1,3,8-triazaspiro[4.5]decan-2-one]	< 3 nM
